Consider six compounds from paper PMC6352943, “Novel pyrazolo[3,4-d]pyrimidines: design, synthesis, anticancer activity, dual EGFR/ErbB2 receptor tyrosine kinases inhibitory activity, effects on cell cycle profile and caspase-3-mediated apoptosis” (Journal of Enzyme Inhibition and Medicinal Chemistry, 2019).

Structures are written as SMILES.

What all share (assay): NCI 60 cell line single dose screen (SRB)
Format in all cases: cell-based

Experiment [1] has as its system NCI-H460. To be noted: Homo sapiens; NCI-H460 (non-small cell lung cancer), single dose 10^−5 M, 48 h; read-out: Growth inhibition percentage. In outline:
(§1)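 Cells were plated and grown 24 h at 37 °C, 5% CO2 before compound addition from DMSO stock, then exposed 48 h. Adherent cells were fixed with cold TCA (final 10%) and suspension cells with 16% TCA. SRB-stained protein was read at 515 nm and percent growth was calculated against time-zero and untreated plates.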

Experiment [2] concerns SK-MEL-2. To be noted: Homo sapiens; SK-MEL-2 (melanoma), single dose 10^−5 M, 48 h; read-out: Growth inhibition percentage. The procedure, abridged: as §1
Experiment [3] concerns SF-268. As to conditions: Homo sapiens; SF-268 (CNS cancer), single dose 10^−5 M, 48 h; read-out: Growth inhibition percentage. In outline: as §1
In experiment [4] the test system is HOP-92. To be noted: Homo sapiens; HOP-92 (non-small cell lung cancer), single dose 10^−5 M, 48 h; read-out: Growth inhibition percentage. The procedure, abridged: as §1
Experiment [5] concerns SW-620. To be noted: Homo sapiens; SW-620 (colon cancer), single dose 10^−5 M, 48 h; read-out: Growth inhibition percentage. The procedure, abridged: as §1
Experiment [6] concerns IGROV1. As to conditions: Homo sapiens, IGROV-1; IGROV1 (ovarian cancer), single dose 10^−5 M, 48 h; read-out: Growth inhibition percentage. In outline: as §1
In experiment [7] the test system is BT-549. To be noted: Homo sapiens; BT-549 (breast cancer), single dose 10^−5 M, 48 h; read-out: Growth inhibition percentage. In outline: as §1
Experiment [8] relates to HCC-2998. To be noted: Homo sapiens; HCC-2998 (colon cancer), single dose 10^−5 M, 48 h; read-out: Growth inhibition percentage. The procedure, abridged: as §1
Experiment [9] has as its system SF-295. As to conditions: Homo sapiens; SF-295 (CNS cancer), single dose 10^−5 M, 48 h; read-out: Growth inhibition percentage. In outline:
as §1

For experiment [10], the system named is RXF 393. As to conditions: Homo sapiens; RXF 393 (renal cancer), single dose 10^−5 M, 48 h; read-out: Growth inhibition percentage. In outline: as §1
The test system of experiment [11] is CCRF-CEM. To be noted: Homo sapiens; CCRF-CEM (leukemia), single dose 10^−5 M, 48 h; read-out: Growth inhibition percentage. In outline: as §1
In experiment [12] the test system is HL-60(TB). To be noted: Homo sapiens; HL-60(TB) (leukemia), single dose 10^−5 M, 48 h; read-out: Growth inhibition percentage. In outline: as §1
The test system of experiment [13] is SK-MEL-5. As to conditions: Homo sapiens; SK-MEL-5 (melanoma), single dose 10^−5 M, 48 h; read-out: Growth inhibition percentage. The procedure, abridged:
as §1

For experiment [14], the system named is UO-31. To be noted: Homo sapiens; UO-31 (renal cancer), single dose 10^−5 M, 48 h; read-out: Growth inhibition percentage. In outline: as §1
Experiment [15] concerns COLO 205. To be noted: Homo sapiens, COLO 205, 48 h; read-out: Growth inhibition percentage. The procedure, abridged:
as §1

The subject of experiment [16] is ACHN. As to conditions: Homo sapiens; ACHN (renal cancer), single dose 10^−5 M, 48 h; read-out: Growth inhibition percentage. In outline:
as §1

Experiment [17] has as its system DU-145. To be noted: Homo sapiens; DU-145 (prostate cancer), single dose 10^−5 M, 48 h; read-out: Growth inhibition percentage. The procedure, abridged: as §1
The test system of experiment [18] is SR. To be noted: Homo sapiens; SR (leukemia), single dose 10^−5 M, 48 h; read-out: Growth inhibition percentage. In outline: as §1
The test system of experiment [19] is HT29. As to conditions: Homo sapiens, HT-29; HT29 (colon cancer), single dose 10^−5 M, 48 h; read-out: Growth inhibition percentage. In outline: as §1
The subject of experiment [20] is NCI-H23. As to conditions: Homo sapiens; NCI-H23 (non-small cell lung cancer), single dose 10^−5 M, 48 h; read-out: Growth inhibition percentage. In outline:
as §1

In experiment [21] the test system is OVCAR-4. To be noted: Homo sapiens; OVCAR-4 (ovarian cancer), single dose 10^−5 M, 48 h; read-out: Growth inhibition percentage. The procedure, abridged:
as §1

One may read the inhibition as the drop in the measured response relative to a control, in per cent. Consider `COc1cc(C=NNc2ncnc3c2c(C)nn3-c2ccc(F)cc2)ccc1O` [Compound 10b, 1–(4-Fluorophenyl)-4–(2-(4-hydroxy-3-methoxybenzylidene)-hydrazinyl)-3-methyl-1H-pyrazolo[3,4-d]pyrimidine], for which the inhibition at 10 µM in [1] is 11.9%; in [2], 10.2%; in experiment [3], 29%; in experiment [4], 39.5%; in experiment [5] it was -30.9%; in experiment [6], 20.6%. In addition, the inhibition at 10 µM in experiment [7] was 9.63%; in [8], 0.27%; in experiment [9], -5.51%; in [10] it was 4.9%; in [11], 38%; in [12], 1.69%. Moreover, the inhibition at 10 µM in [13] is 43.4%; in experiment [14] it was 35.6%; in experiment [15], -4.39%; in experiment [16], 7.34%; in [17], 12.4%; in experiment [18], 22.9%. The inhibition at 10 µM turned out to be 7.7% in experiment [19], 9.39% in experiment [20] and 9.65% in [21].

As for `COc1cc(C=NNc2ncnc3c2c(C)nn3-c2ccc(F)cc2)cc(OC)c1OC` [Compound 10c, 1–(4-Fluorophenyl)-3-methyl-4–(2-(3,4,5-trimethoxybenzylidene)-hydrazinyl)-1H-pyrazolo[3,4-d]pyrimidine], the inhibition at 10 µM in experiment [1] was -3.23%; in experiment [2] it was -1.74%; in experiment [3], 6.35%; in experiment [4] it was 40.4%; in [5], -11.7%; in [6] it was 26.6%. Also, the inhibition at 10 µM is -1.06% in experiment [7]; 2.74% in experiment [8]; -2.66% in experiment [9]; 3.39% in experiment [10]; 4.81% in experiment [11]; -4.11% in experiment [12]. Also, the inhibition at 10 µM in [13] is 15.3%; in experiment [14] it was 31.1%; in experiment [15] it was -6.78%; in experiment [16] it was 4.01%; in [17], -4.94%; in [18] it was 13.7%. Further, the inhibition at 10 µM was 8.83% in experiment [19], 14.2% in experiment [20] and -8.66% in experiment [21].

Take `Cc1nn(-c2ccc(F)cc2)c2ncnc(N3CCN(c4ccc(Cl)cc4)CC3)c12` [Compound 8c, 4–(4-(4-Chlorophenyl)piperazin-1-yl)-1–(4-fluorophenyl)-3-methyl-1H-pyrazolo[3,4-d]pyrimidine]: the inhibition at 10 µM in experiment [1] is -4.35%; in [2] it was 9.37%; in [3], 4.51%; in [4], 15.9%; in experiment [5], -3.16%; in [6] it was 25.6%. The inhibition at 10 µM in [7] was -4.23%; in experiment [8], 3.74%; in experiment [9], -0.93%; in experiment [10], -16.5%; in experiment [11], -8.74%; in experiment [12], 25.5%. Moreover, the inhibition at 10 µM in experiment [13] is 5.22%; in experiment [14], 34.9%; in experiment [15], -1.97%; in experiment [16], 2.13%; in experiment [17], -5.88%; in [18], 11%. Moreover, the inhibition at 10 µM was 5.97% in experiment [19], 20.7% in [20] and -1.9% in [21].

Turning to `Cc1nn(-c2ccc(F)cc2)c2ncnc(N)c12` [Compound 4, 1–(4-Fluorophenyl)-3-methyl-1H-pyrazolo[3,4-d]pyrimidin-4-amine], the inhibition at 10 µM is -9.3% in experiment [1]; 1.74% in experiment [2]; 3.71% in experiment [3]; -1.54% in experiment [4]; -18.7% in experiment [5]; 11.1% in experiment [6]. Besides, the inhibition at 10 µM in experiment [7] was 9.79%; in experiment [8] it was -2.52%; in experiment [9], -3.53%; in experiment [10] it was -17.3%; in experiment [11] it was -12.7%; in [12], 7.87%. Moreover, the inhibition at 10 µM in experiment [13] is 2%; in [14], 11.3%; in experiment [15] it was -18.4%; in experiment [16] it was 0.98%; in [17] it was -7.26%; in experiment [18], 3.35%. Moreover, the inhibition at 10 µM in experiment [19] is 3.34%; in experiment [20], 4.73%; in experiment [21], -4.38%.

Turning to `Cc1nn(-c2ccc(F)cc2)c2ncnc(NN)c12` [Compound 9, 1–(4-Fluorophenyl)-4-hydrazinyl-3-methyl-1H-pyrazolo[3,4-d]-pyrimidine], the inhibition at 10 µM in experiment [1] was -11.7%; in experiment [2] it was 18.3%; in [3], 25.6%; in [4] it was 13.4%; in experiment [5] it was -8.79%; in [6] it was 23.5%. Moreover, the inhibition at 10 µM in [7] was -10.8%; in experiment [8] it was 5.1%; in experiment [9], -3.92%; in experiment [10], 5.47%; in experiment [11] it was 30.9%; in experiment [12], 11.8%. For the same compound, the inhibition at 10 µM was 3.85% in [13]; 28.7% in [14]; -11.7% in experiment [15]; 2.07% in [16]; -0.84% in experiment [17]; 20.2% in [18]. Moreover, the inhibition at 10 µM turned out to be 1.62% in [19], 19.1% in experiment [20] and 17.8% in [21].

On to `Cc1ccc(Nc2ncnc3c2c(C)nn3-c2ccc(F)cc2)cc1` [Compound 7c, 1–(4-Fluorophenyl)-3-methyl-N-(p-tolyl)-1H-pyrazolo[3,4-d]-pyrimidin-4-amine], for which the inhibition at 10 µM was -9.33% in experiment [1]; 10.9% in experiment [2]; 1.06% in [3]; 3.79% in experiment [4]; -8.11% in [5]; 1.54% in experiment [6]. The inhibition at 10 µM is -8.83% in experiment [7]; 1.34% in experiment [8]; -3.83% in experiment [9]; -13.7% in [10]; -8.18% in experiment [11]; 16% in experiment [12]. The inhibition at 10 µM in experiment [13] is -3.74%; in experiment [14], 8.66%; in [15], -13.3%; in experiment [16], -12.2%; in [17] it was -8.97%; in [18], 6.02%. Moreover, the inhibition at 10 µM in [19] was 11.7%; in experiment [20], 4.63%; in [21], -3.91%.
